SMILES strings stand for the structures.

This test deals with phosphodiesterase 4. Put plainly: Phosphodiesterase 4 inhibition, SPA with enzyme preparation from human PMNL. It is filed as biochemical. Conditions: cytosolic PDE4 from human PMNL, 0.5 μM [3H]-cAMP, 37° C., 30 minutes; read-out: PDE 4 inhibition IC50. The procedure: PDE4 activity is determined using enzyme preparations from human polymorphonuclear […] (PMNL). Human blood (buffy coats) was anticoagulated with citrate. A centrifugation at 700×g at room temperature (RT) for 20 minutes separates the platelet-rich plasma in the supernatant from the erythrocytes and leukocytes. The PMNLs for the PDE4 determination are isolated by a subsequent dextran sedimentation and in gradient centrifugation with Ficoll-Paque. After the cells have been washed twice, the erythrocytes which are still present are lysed by adding 10 ml of hypotonic buffer (155 mM NH4Cl, 10 mM NaHCO3, 0.1 mM EDTA, pH=7.4) at 4° C. within 6 minutes. The still intact PMNLs are then washed twice with PBS and lysed by ultrasound. The supernatant from a centrifugation at 4° C. and 48000×g for one hour contains the cytosolic fraction of PDE 4 and is employed for the PDE4 measurements.
The phosphodiesterase activity is assayed using a modified Amersham Pharmacia Biotech method, an SPA (scintillation proximity assay).
The reaction mixtures contain buffer (50 mM Tris-HCl (pH 7.4), 5 mM MgCl2, 100 μM cGMP), the inhibitors in variable concentrations and the appropriate enzyme preparation. The reaction is started by adding the substrate, 0.5 μM [^3H]-cAMP. The final volume is 100 μl. Test substances are made up as stock solutions in DMSO. The DMSO concentration in the reaction mixture is 1% v/v. The PDE activity is unaffected at this DMSO concentration. After the reaction has been started by adding substrate, the samples are incubated at 37° C. for 30 minutes. The reaction is stopped by adding a defined amount of SPA beads, and the samples are counted after one hour in a Beta counter. The nonspecific enzymic activity (the blank) is determined in the presence of 100 μM rolipram and subtracted from the test results. The incubation mixtures for the PDE4 assay contain 100 μM cGMP in order to inhibit any contamination by PDE 3.
Broadly, the IC50 is the midpoint of a concentration-inhibition curve. Take `O=C(Nc1c(Cl)cncc1Cl)C(=O)c1cn(Cc2ccc(F)cc2)c2c1ccc[n+]2[O-]` [Compound 1, N-(3,5-Dichloropyridin-4-yl)-[1-(4-fluorobenzyl)-7-oxo-7-azaindol-3-yl]glyoxylamide]: the IC50 stood at 52 nM.

For `O=C(Nc1c(Cl)cccc1Cl)C(=O)c1cn(Cc2ccccc2Cl)c2c1ccc[n+]2[O-]` [Compound 2, N-(2,6-Dichlorophenyl)-[1-(2-chlorobenzyl)-7-oxo-7-azaindol-3-yl]glyoxylamide], the IC50 came out at 48 nM.

Consider `O=C(Nc1c(Cl)c[n+]([O-])cc1Cl)C(=O)c1cn(Cc2ccc(F)cc2)c2c1ccc[n+]2[O-]` [Compound 4, N-(3,5-Dichloro-1-oxopyridin-4-yl)-[1-(4-fluorobenzyl)-7-oxo-7-azaindol-3-yl]glyoxylamide], for which the IC50 was determined as 751 nM. Consider `O=C(Nc1c(Cl)c[n+]([O-])cc1Cl)C(=O)c1cn(Cc2ccc(F)cc2)c2ncccc12` [Compound 3, N-(3,5-Dichloro-1-oxopyridin-4-yl)-[1-(4-fluorobenzyl)-7-azaindol-3-yl]glyoxylamide], for which the IC50 came to 8 nM.

Values taken from US7211583B2, “7-azaindoles and the use thereof as therapeutic agents” (Elbion AG, priority 2003, dated 2007).
